Test results published in US20240156902A1, “METHODS OF TREATING NEURODEGENERATIVE DISORDERS WITH INTRANASAL NF-KAPPAB ESSENTIAL MODIFIER (NEMO)-BINDING DOMAIN (NBD) PEPTIDE” (Rush University Medical Center, priority 2021, published 2024).
Where two headings read alike, the source gives them in different places.

How the values were obtained:
NF-κB [1] = details: cultured brain cells; cited from earlier work
NF-κB [2] = details: in vivo in the brain; cited from earlier work
NF-κB [3] = test: NF-κB activation in nigra of PFF-seeded A53T mice (acetylated p65 in microglia); assay type: in vivo, mouse; details: intranasal 0.1 mg/kg/d for 1 month
Protocol: (§1) Following 2 months of surgery, animals received wild type NBD (wtNBD) at a dose of 0.1 mg/kg body weight/day intranasally. After 1 month of wtNBD treatment, behavioral analyses were performed followed by immunohistochemistry and different biochemical experiments.
FIG. 2A and FIG. 2B show the results following intranasal administration of wtNBD peptide inhibiting NF-κB activation in the nigra of PFF-seeded mouse model of Lewy body diseases. A53T transgenic mice were seeded with PFF bilaterally and following 2 months of brain surgery, animals were given intranasal administration of 0.1 mg/kg wtNBD peptide daily. Activation of NF-κB in nigra was monitored by evaluating the level of acetylated (K310) p65 in Ibal+ve microglia in different groups of mice. Marked up-regulation of microglial acetylated p65 level in the SN of PFF-seeded mice was found compared to the PBS-injected mice (FIG. 2A and FIG. 2B). […] Statistical significance was determined by one-way ANOVA followed by Tukey's multiple comparison tests. *p<0.05, ***p<0.001 indicate significance compared to respective groups. Values are given as mean±SEM (n=4 per group). […]
(§2) Following 1 month of wtNBD administration, NF-κB activation in substantia nigra (SN) and spreading of α-syn in both SN and motor cortex were monitored. […]

α-syn = α-syn spreading from striatum to nigra and motor cortex in PFF-seeded A53T mice (pSyn129 immunostaining, α-syn immunoblot); assay type: in vivo, mouse; details: intranasal 0.1 mg/kg/d for 1 month
Protocol: as §1
Propagation of α-syn in PFF-seeded A53T mouse brain was monitored in SN by pSyn129 immunostaining and relative intensity measurement (FIG. 3A, FIG. 3B) and also by immunoblotting total α-syn in Triton X-100 soluble and insoluble fractions (FIG. 3C, FIG. 3D). The ratio of α-syn to actin is shown in the diagrams (FIG. 3E, FIG. 3F). Level of pSyn129 in motor cortex was assessed by immunohistochemistry (FIG. 3G, FIG. 3H). Two sections from each brain were used for immunostaining and pSyn129 specific intensity was analysed by Fiji. One-way ANOVA followed by Tukey's multiple comparison tests was conducted for statistical analyses. **p<0.01, ***p<0.001 indicate significance compared to respective groups. Values are given as mean±SEM (n=4 animals per group).
(§3) The wtNBD peptide (SEQ ID NO: 4) was solubilized in normal saline in such a way so that each mouse receives 0.1 mg/kg of body weight NBD peptide in 2.5 μl of saline. […]
as §2

dopaminergic neurons = test: Parkinsonian pathology in PFF-seeded A53T mice (TH immunohistochemistry, TH immunoblot, striatal neurotransmitters); assay type: in vivo, mouse; details: intranasal 0.1 mg/kg/d for 1 month
Protocol: (§4) FIG. 4A-L depicts the results following intranasal administration of wtNBD peptide reducing Parkinsonian pathology in PFF-seeded mouse model of Lewy body diseases. PFF-seeded A53T animals were given intranasal administration of 0.1 mg/kg wtNBD peptide daily for one month Parkinsonian pathology was evaluated by TH immunohistochemistry of nigral sections (FIG. 4A), immunoblotting of total TH level in SN (FIG. 4B and FIG. 4C), assessing striatal level of dopamine (DA), and its metabolites 3,4-dihydroxyphenyl acetate (DOPAC), homovanillic acid (HVA) (FIG. 4D-F). Behavioral analyses of animals were performed by open field test (FIG. 4G), where movement parameters such as distance (FIG. 4H), velocity (FIG. 4I), cumulative duration (FIG. 4J) and rearings (FIG. 4K) were recorded. Feet movement was analysed by rotarod test (FIG. 4L). Statistical significance was determined by one-way ANOVA followed by Tukey's multiple comparison tests. *p<0.05, **p<0.01, ***p<0.001 indicate significance compared to respective groups. Values are given as mean±SEM (n=4 per group).
The wtNBD peptide (SEQ ID NO: 4) was solubilized in normal saline in such a way so that each mouse receives 0.1 mg/kg of body weight NBD peptide in 2.5 μl of saline. Then 2.5 μl of wtNBD solution was administered in mice through each nostril every day for a total of 30 days. Mice were hold in supine condition while administering wtNBD solution. See Rangasamy et al. “Selective disruption of TLR2-MyD88 interaction inhibits inflammation and attenuates Alzheimer's pathology” (2018) J Clin Invest 128, 4297-4312. Intranasal treatment was started for preformed α-syn fibril (PFF) or PBS injected A53T animals at the age of 5 months (2 months following the brain surgery) for the next 30 days. Aged A53T animals (8 months old) were also treated with wtNBD peptides for 1 month followed by behavioural tests and other experiments at the age of 9 months.
Next, the effect of intranasal wtNBD on PFF-induced Parkinsonian pathologies was monitored. […] Locomotor deficit was also evident by rotarod analysis (FIG. 4L).

[4] = test system: PFF-seeded A53T transgenic mice; test: Locomotor activities of PFF-seeded A53T mice (open field test, rotarod); assay type: in vivo, mouse; details: intranasal 0.1 mg/kg/d for 1 month
Protocol: as §4, §3
Next, the effect of intranasal wtNBD on PFF-induced Parkinsonian pathologies was monitored. […]

[5] = in vivo; cited from earlier work

## LDWSWL [truncated hexapeptide of the wtNBD]
NF-κB [1]
  block of the function of NF-κB: sufficient to block
NF-κB [2]
  block of the function of NF-κB: sufficient to block

## DRQIKIWFQNRRMKWKKLDWSWL (DRQIKWFQNRRMKWKKLDWSWL) [wtNBD]
NF-κB [3]
  microglial acetylated (K310) p65 level in the SN: significantly decreased
α-syn; PFF-seeded A53T mice
  level of pSyn129 in nigral neurons (relative optical density in SN): drastically reduced
α-syn; compared to saline-treated PFF-seeded mice
  accumulation of pSyn129 in cortical neurons (motor cortex): reduced accumulation
Dopaminergic neurons
  nigral TH neurons: significantly protected
  nigral TH protein level: significantly protected
  striatal DA level: significantly protected
[4]
  movement deficits (open field distance, velocity, cumulative duration, rearing; rotarod): significantly inhibited
[5]
  entry into the brain: enters into the brain
